Laboratory results as given in patent US8148391B2 (Cephalon, Inc., priority 2006, dated 2012).

Columns and labels:
[1] = target: T1, baculovirus-expressed ALK (Homo sapiens, UniProt Q9UM73); assay: ALK Kinase Assay (ELISA-type, time-resolved fluorescence); assay type: biochemical; details: ALK kinase inhibition, 1 μM ATP (Km level); read-out: ALK Activity
T1 construct: host or cells: baculovirus expression system
In short: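 Substrate coating: phospholipase C-γ, 10 μg/mL in TBS. Kinase step: 30 ng/ml ALK, 15 min, 37° C. Detection and analysis: Eu-N1 PT66 antibody, with IC50 fitted as a sigmoidal variable-slope dose-response curve.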

[2] = target: T2, c-Met (cytoplasmic domain) (Homo sapiens, UniProt P08581); assay: c-Met Kinase Assay (same methods as for ALK, with modifications); assay type: biochemical; details: c-Met kinase inhibition, 1 μM ATP (Km level); read-out: cMet Activity
T2 construct: 10 ng/mL c-Met (cytoplasmic domain, Invitrogen Corporation #PV3143); purchased Invitrogen Corporation PV3143
In short: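 This plate-based kinase format uses immobilized phospholipase C-γ as substrate, phosphorylated by c-Met cytoplasmic domain (10 ng/mL) at 37° C for 15 minutes.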

T2 sequence (P08581 956-1390 limits assumed): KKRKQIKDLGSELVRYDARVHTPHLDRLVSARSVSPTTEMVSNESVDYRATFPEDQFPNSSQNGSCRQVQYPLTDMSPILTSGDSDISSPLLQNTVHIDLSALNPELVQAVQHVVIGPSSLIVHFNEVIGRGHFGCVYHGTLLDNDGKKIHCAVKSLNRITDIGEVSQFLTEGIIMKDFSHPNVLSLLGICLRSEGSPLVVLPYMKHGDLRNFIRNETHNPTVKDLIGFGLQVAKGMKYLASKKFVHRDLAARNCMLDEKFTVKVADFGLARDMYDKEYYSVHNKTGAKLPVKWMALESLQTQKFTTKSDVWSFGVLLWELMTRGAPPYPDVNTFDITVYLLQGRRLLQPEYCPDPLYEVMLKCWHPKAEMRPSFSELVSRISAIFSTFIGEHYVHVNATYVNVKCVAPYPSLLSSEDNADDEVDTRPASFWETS
T1 sequence (Q9UM73 19-1620): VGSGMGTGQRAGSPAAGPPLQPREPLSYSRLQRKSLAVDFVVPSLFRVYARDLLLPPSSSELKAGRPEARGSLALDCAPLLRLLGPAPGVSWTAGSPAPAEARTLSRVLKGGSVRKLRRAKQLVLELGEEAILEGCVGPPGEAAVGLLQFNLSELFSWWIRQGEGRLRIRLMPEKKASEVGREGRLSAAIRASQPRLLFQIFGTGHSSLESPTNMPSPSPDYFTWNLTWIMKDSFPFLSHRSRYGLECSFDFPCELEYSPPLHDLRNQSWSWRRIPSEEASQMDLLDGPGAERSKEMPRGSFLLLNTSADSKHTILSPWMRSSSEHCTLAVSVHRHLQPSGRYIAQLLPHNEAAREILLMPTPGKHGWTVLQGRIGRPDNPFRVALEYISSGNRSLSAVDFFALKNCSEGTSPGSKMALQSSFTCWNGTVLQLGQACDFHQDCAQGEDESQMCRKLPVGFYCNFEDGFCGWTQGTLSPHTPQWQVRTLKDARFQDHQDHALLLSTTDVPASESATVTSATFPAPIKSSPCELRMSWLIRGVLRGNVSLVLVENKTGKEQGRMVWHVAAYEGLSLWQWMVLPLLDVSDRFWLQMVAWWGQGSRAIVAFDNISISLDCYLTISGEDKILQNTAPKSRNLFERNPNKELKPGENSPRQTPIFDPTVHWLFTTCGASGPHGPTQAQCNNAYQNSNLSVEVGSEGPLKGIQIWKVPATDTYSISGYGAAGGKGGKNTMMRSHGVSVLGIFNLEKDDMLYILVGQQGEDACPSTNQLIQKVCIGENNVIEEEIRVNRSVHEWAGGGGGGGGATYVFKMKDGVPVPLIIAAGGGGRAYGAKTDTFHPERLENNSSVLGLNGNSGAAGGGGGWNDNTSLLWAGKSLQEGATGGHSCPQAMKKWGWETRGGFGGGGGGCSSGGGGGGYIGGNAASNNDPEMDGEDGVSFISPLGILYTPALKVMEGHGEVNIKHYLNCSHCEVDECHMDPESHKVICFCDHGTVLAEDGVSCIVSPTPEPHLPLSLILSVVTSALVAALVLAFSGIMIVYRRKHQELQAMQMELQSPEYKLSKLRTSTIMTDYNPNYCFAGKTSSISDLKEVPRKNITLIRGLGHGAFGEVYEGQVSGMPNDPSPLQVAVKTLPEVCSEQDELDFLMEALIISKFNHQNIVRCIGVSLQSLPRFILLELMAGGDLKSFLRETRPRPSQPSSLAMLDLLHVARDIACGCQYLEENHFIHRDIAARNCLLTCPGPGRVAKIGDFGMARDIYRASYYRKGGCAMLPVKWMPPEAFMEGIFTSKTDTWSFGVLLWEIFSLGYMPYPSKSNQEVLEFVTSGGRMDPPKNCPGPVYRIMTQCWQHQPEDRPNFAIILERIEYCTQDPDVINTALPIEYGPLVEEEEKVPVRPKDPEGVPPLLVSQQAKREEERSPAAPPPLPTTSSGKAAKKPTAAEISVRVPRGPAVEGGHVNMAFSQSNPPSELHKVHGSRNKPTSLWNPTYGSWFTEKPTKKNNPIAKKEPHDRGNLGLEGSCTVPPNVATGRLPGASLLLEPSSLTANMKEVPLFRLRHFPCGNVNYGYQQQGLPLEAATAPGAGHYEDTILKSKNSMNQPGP

SMILES | IC50 [1] | IC50 [2]
CNC(=O)c1ccccc1Nc1nc(Nc2cc3c(cc2Cl)CC2CCC3N2CCOC)ncc1Cl (centres unmarked) [Example 88, 2-{5-Chloro-2-[5-chloro-12-(2-methoxy-ethyl)-12-aza-tricyclo[7.2.1.0*2,7*]dodeca-2(7),3,5-trien-4-ylamino]-pyrimidin-4-ylamino}-N-methyl-benzamide] | < 0.1 µM | 1 to 10 µM
CNC(=O)c1cccc(Cl)c1Nc1nc(Nc2ccc3c(c2)C2CCC(C3)N2)ncc1Cl (centres unmarked) [Example 90, 2-[2-(12-Aza-tricyclo[7.2.1.0*2,7*]dodeca-2(7),3,5-trien-4-ylamino)-5-chloro-pyrimidin-4-ylamino]-3-chloro-N-methyl-benzamide] | 0.1 to 1 µM | < 0.1 µM
CNC(=O)c1cccc(Cl)c1Nc1nc(Nc2ccc3c(c2)C2CCC(C3)N2CCOC)ncc1Cl (centres unmarked) [Example 91, 3-Chloro-2-{5-chloro-2-[12-(2-methoxy-ethyl)-12-aza-tricyclo[7.2.1.0*2,7*]dodeca-2(7),3,5-trien-4-ylamino]-pyrimidin-4-ylamino}-N-methyl-benzamide] | 0.1 to 1 µM | < 0.1 µM
COc1c(Nc2ncc(Cl)c(N[C@@H]3CCCC[C@H]3NS(C)(=O)=O)n2)ccc2c1C1CCC(C2)N1 (stereo partly drawn) [Example 92, N-{(1R,2R)-2-[5-Chloro-2-(3-methoxy-12-aza-tricyclo[7.2.1.0*2,7*]dodeca-2(7),3,5-trien-4-ylamino)-pyrimidin-4-ylamino]-cyclohexyl}-methanesulfonamide] | 1 to 10 µM | > 10 µM
CCN1C2CCC1c1c(ccc(Nc3ncc(Cl)c(N[C@@H]4CCCC[C@H]4NS(C)(=O)=O)n3)c1OC)C2 (stereo partly drawn) [Example 93, N-{(1R,2R)-2-[5-Chloro-2-(12-ethyl-3-methoxy-12-aza-tricyclo[7.2.1.0*2,7*]dodeca-2(7),3,5-trien-4-ylamino)-pyrimidin-4-ylamino]-cyclohexyl}-methanesulfonamide] | > 10 µM | > 10 µM
CNC(=O)c1ccccc1Nc1nc(Nc2ccc3c(c2)CCCCN3C)ncc1Cl [Example 103, 2-[5-Chloro-2-(1-methyl-2,3,4,5-tetrahydro-1H-benzo[b]azepin-7-ylamino)-pyrimidin-4-ylamino]-N-methyl-benzamide] | < 0.1 µM | < 0.1 µM
CN1CCCCc2cc(Nc3ncc(Cl)c(N[C@@H]4CCCC[C@H]4NS(C)(=O)=O)n3)ccc21 [Example 104, N-{(1R,2R)-2-[5-Chloro-2-(1-methyl-2,3,4,5-tetrahydro-1H-benzo[b]azepin-7-ylamino)-pyrimidin-4-ylamino]-cyclohexyl}-methanesulfonamide] | < 0.1 µM | 0.1 to 1 µM
COc1cc(N2CCOCC2)ccc1Nc1nc(Nc2ccc3c(c2)CCCCN3C)ncc1Cl [Example 105, 5-Chloro-N*4*-(2-methoxy-4-morpholin-4-yl-phenyl)-N*2*-(1-methyl-2,3,4,5-tetrahydro-1H-benzo[b]azepin-7-yl)-pyrimidine-2,4-diamine] | < 0.1 µM | > 10 µM
CN1CCCCc2cc(Nc3ncc(Cl)c(Nc4ccccc4NS(C)(=O)=O)n3)ccc21 [Example 106, N-{2-[5-Chloro-2-(1-methyl-2,3,4,5-tetrahydro-1H-benzo[b]azepin-7-ylamino)-pyrimidin-4-ylamino]-phenyl}-methanesulfonamide] | < 0.1 µM | 0.1 to 1 µM
CNC(=O)c1ccccc1Nc1nc(Nc2cc3c(cc2OC)C(=O)N(C)CCC3)ncc1Cl [Example 107, 2-[5-Chloro-2-(8-methoxy-2-methyl-1-oxo-2,3,4,5-tetrahydro-1H-benzo[c]azepin-7-ylamino)-pyrimidin-4-ylamino]-N-methyl-benzamide] | < 0.1 µM | 0.1 to 1 µM
CNC(=O)c1ccccc1Nc1nc(Nc2ccc3c(c2)N(C)C(=O)CCC3)ncc1Cl [Example 108, 2-[5-Chloro-2-(1-methyl-2-oxo-2,3,4,5-tetrahydro-1H-benzo[b]azepin-8-ylamino)-pyrimidin-4-ylamino]-N-methyl-benzamide] | < 0.1 µM | < 0.1 µM
CN1C(=O)CCCc2ccc(Nc3ncc(Cl)c(N[C@@H]4CCCC[C@H]4NS(C)(=O)=O)n3)cc21 [Example 109, N-{(1R,2R)-2-[5-Chloro-2-(1-methyl-2-oxo-2,3,4,5-tetrahydro-1H-benzo[b]azepin-8-ylamino)-pyrimidin-4-ylamino]-cyclohexyl}-methanesulfonamide] | < 0.1 µM | 1 to 10 µM
CN1C(=O)CCCc2ccc(Nc3ncc(Cl)c(NC4C5C=CC(C5)C4C(N)=O)n3)cc21 (stereo not drawn) [Example 110, (2-exo,3-exo)-3-[5-Chloro-2-(1-methyl-2-oxo-2,3,4,5-tetrahydro-1H-benzo[b]azepin-8-ylamino)pyrimidin-4-ylamino]-bicyclo[2.2.1]hept-5-ene-2-carboxylic acid amide] | < 0.1 µM | 0.1 to 1 µM
COCCN1CCc2cc(Nc3ncc(Cl)c(N[C@@H]4CCCC[C@H]4NS(C)(=O)=O)n3)c(OC)cc2CC1 [Example 111, N-((1R,2R)-2-{5-Chloro-2-[8-methoxy-3-(2-methoxy-ethyl)-2,3,4,5-tetrahydro-1H-benzo[d]azepin-7-ylamino]-pyrimidin-4-ylamino}-cyclohexyl)-methanesulfonamide] | < 0.1 µM | > 10 µM
COCCN1CCc2cc(Nc3ncc(Cl)c(NC4C5C=CC(C5)C4C(N)=O)n3)c(OC)cc2CC1 (stereo not drawn) [Example 112, (2-exo,3-exo)-3-{5-Chloro-2-[8-methoxy-3-(2-methoxy-ethyl)-2,3,4,5-tetrahydro-1H-benzo[d]azepin-7-ylamino]-pyrimidin-4-ylamino}-bicyclo[2.2.1]hept-5-ene-2-carboxylic acid amide] | < 0.1 µM | > 10 µM
CNC(=O)c1ccccc1Nc1nc(Nc2c(OC)ccc3c2C(=O)N(C)CCC3)ncc1Cl [Example 114, 2-[5-Chloro-2-(8-methoxy-2-methyl-1-oxo-2,3,4,5-tetrahydro-1H-benzo[c]azepin-9-ylamino)-pyrimidin-4-ylamino]-N-methyl-benzamide] | > 10 µM | > 10 µM
COc1c(Nc2ncc(Cl)c(NC3C4C=CC(C4)C3C(N)=O)n2)ccc2c1CCCC(=O)N2C (stereo not drawn) [Example 115, (2-exo, 3-exo)-3-[5-Chloro-2-(6-methoxy-1-methyl-2-oxo-2,3,4,5-tetrahydro-1H-benzo[b]azepin-7-ylamino)-pyrimidin-4-ylamino]-bicyclo[2.2.1]hept-5-ene-2-carboxylic acid amide] | < 0.1 µM | > 10 µM
CNC(=O)c1ccccc1Nc1nc(Nc2ccc3c(c2OC)CCCC(=O)N3C)ncc1Cl [Example 116, 2-[5-Chloro-2-(6-methoxy-1-methyl-2-oxo-2,3,4,5-tetrahydro-1H-benzo[b]azepin-7-ylamino)-pyrimidin-4-ylamino]-N-methyl-benzamide] | < 0.1 µM | 1 to 10 µM
COc1cc(N2CCOCC2)ccc1Nc1nc(Nc2ccc3c(c2OC)CCCC(=O)N3C)ncc1Cl [Example 117, 7-[5-Chloro-4-(2-methoxy-4-morpholin-4-yl-phenylamino)-pyrimidin-2-ylamino]-6-methoxy-1-methyl-1,3,4,5-tetrahydro-benzo[b]azepin-2-one] | < 0.1 µM | > 10 µM
COc1c(Nc2ncc(Cl)c(N[C@@H]3CCCC[C@H]3NS(C)(=O)=O)n2)ccc2c1CCCC(=O)N2C [Example 118, N-{(1R,2R)-2-[5-Chloro-2-(6-methoxy-1-methyl-2-oxo-2,3,4,5-tetrahydro-1H-benzo[b]azepin-7-ylamino)-pyrimidin-4-ylamino]-cyclohexyl}-methanesulfonamide] | < 0.1 µM | > 10 µM
CCN1C(=O)CCCc2c1ccc(Nc1ncc(Cl)c(N[C@@H]3CCCC[C@H]3NS(C)(=O)=O)n1)c2OC [Example 120, N-{(1R,2R)-2-[5-Chloro-2-(1-ethyl-6-methoxy-2-oxo-2,3,4,5-tetrahydro-1H-benzo[b]azepin-7-ylamino)-pyrimidin-4-ylamino]-cyclohexyl}-methanesulfonamide] | < 0.1 µM | > 10 µM
CCN1C(=O)CCCc2c1ccc(Nc1ncc(Cl)c(NC3C4C=CC(C4)C3C(N)=O)n1)c2OC (stereo not drawn) [Example 121, (2-exo,3-exo)-3-[5-Chloro-2-(1-ethyl-6-methoxy-2-oxo-2,3,4,5-tetrahydro-1H-benzo[b]azepin-7-ylamino)-pyrimidin-4-ylamino]-bicyclo[2.2.1]hept-5-ene-2-carboxylic acid amide] | < 0.1 µM | > 10 µM
CNC(=O)c1ccccc1Nc1nc(Nc2ccc(OC)c3c2N(C)C(=O)CCC3)ncc1Cl [Example 123, 2-[5-Chloro-2-(6-methoxy-1-methyl-2-oxo-2,3,4,5-tetrahydro-1H-benzo[b]azepin-9-ylamino)-pyrimidin-4-ylamino]-N-methyl-benzamide] | 0.1 to 1 µM | > 10 µM
COc1cc(N2CCOCC2)ccc1Nc1nc(Nc2ccc(OC)c3c2N(C)C(=O)CCC3)ncc1Cl [Example 124, 9-[5-Chloro-4-(2-methoxy-4-morpholin-4-yl-phenylamino)-pyrimidin-2-ylamino]-6-methoxy-1-methyl-1,3,4,5-tetrahydro-benzo[b]azepin-2-one] | < 0.1 µM | > 10 µM
CCN1C(=O)CCCc2c(OC)ccc(Nc3ncc(Cl)c(Nc4ccc(N5CCOCC5)cc4OC)n3)c21 [Example 125, 9-[5-Chloro-4-(2-methoxy-4-morpholin-4-yl-phenylamino)-pyrimidin-2-ylamino]-1-ethyl-6-methoxy-1,3,4,5-tetrahydro-benzo[b]azepin-2-one] | < 0.1 µM | > 10 µM
